Counter-ions that a name gives are not always drawn.
Columns and labels:
α1 adrenalin receptor = assay: Binding test on [3H] prazosin, cerebral cortex receptor fraction; design: species or system SD rats; details: rat cerebral cortex receptor fraction, about 0.2 nM [3H] prazosin, room temperature 60 min; read-out: α 1
Method: As radioisotope-labeled compounds, use was made of the following reagents (mfd. by NEN). • 3) [^3H] […] Prazosin.
(§1) Use was made of SD rats aged 6 to 8 weeks.
(§2) The rats were sacrificed by dcapitation to extirpate the cerebra.
(§3) Each mixture was homogenized by using a Teflon glass homogenizer and centrifuged as 1,000× g for 10 min. The supernatant thus obtained was further centrifuged at 20,000× g for 20 min. […] After centrifuging at 20,000× g for 20 min, the obtained precipitate was further suspended and centrifuged twice each in the same manner. […] This receptor fraction was stored at −80° C. until using.
IC50 was calculated by the probit method, while Ki was determined in accordance with the following formula: Ki=IC50(1+c/Kd) wherein c represents the concentration of the radioisotope-labeled compound, and Kd represents the dissociation constant of the radioisotope-labeled compound with respect to the receptor determined by Scatchard's analysis. (Binding test on [^3H] prazosin)
To the receptor fraction of the cerebral cortex were added a test compound and about 0.2 nM of [^3H] prazosin and the resultant mixture was incubated at room temperature for 60 min. Next, it was filtered through a glass filter with the use of a cell harvester. After washing the glass filter with 50 mM Tris hydrochloride (pH 7.4), the radioactivity of the receptor was measured with a liquid scintillation counter. The binding detected in the presence of 10 μM of phentolamine was referred to as the nonspecific binding.

serotonin 1A receptor = biological target: T1, serotonin 1A receptor (Rattus norvegicus, UniProt P19327); assay: Binding test on [3H] 8-hydroxy-dipropylaminotetralin, hippocampus receptor fraction; design: species or system SD rats; details: rat hippocampus receptor fraction, 0.5 nM [3H] 8-OH-DPAT, room temperature 30 min; read-out: 5HT1
T1 construct: To the receptor fraction of the hippocampus were added a test compound and 0.5 nM of [^3H]; 8-hydroxy-dipropylaminotetralin; from tissue; host or cells: rat hippocampus membrane fraction
T1 sequence (P19327 1-422): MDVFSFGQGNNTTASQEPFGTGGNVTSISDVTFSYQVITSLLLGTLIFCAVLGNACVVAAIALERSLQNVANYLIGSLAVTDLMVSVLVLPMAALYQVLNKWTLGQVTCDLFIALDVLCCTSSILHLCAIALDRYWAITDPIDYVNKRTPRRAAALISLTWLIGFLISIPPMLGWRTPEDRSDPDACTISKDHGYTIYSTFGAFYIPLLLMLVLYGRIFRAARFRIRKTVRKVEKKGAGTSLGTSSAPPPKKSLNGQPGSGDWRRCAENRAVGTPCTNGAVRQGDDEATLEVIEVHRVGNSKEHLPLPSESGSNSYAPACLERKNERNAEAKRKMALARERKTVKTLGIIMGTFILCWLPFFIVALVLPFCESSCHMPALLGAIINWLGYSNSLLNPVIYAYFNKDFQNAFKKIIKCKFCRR
Method: (1) Binding test on serotonin 1A, serotonin 2 and α1 adrenalin receptors
The following reagents were employed in this test. • 1) Serotonin binoxalate (5-HT binoxalate, mfd. by Sigma Chemical Co.). • 2) Methysergide maleate (mfd. by RBI).
As radioisotope-labeled compounds, use was made of the following reagents (mfd. by NEN). • 3) [^3H] 8-Hydroxy-dipropylaminotetralin (8-OH-DPAT). • 4) [^3H]
(§4) Methysergide maleate was dissolved in distilled water before using.
as §1
The rats were sacrificed by dcapitation to extirpate the cerebra. The hippocampus and cortex were separated therefrom and employed in the binding tests respectively on the serotonin 1A receptor and the serotonin 2 receptor.
The hippocampus was mixed with 50 times (on the wet weight basis) as much as 0.32 M sucrose solution while the cortex was mixed with 10 times as much the same solution. Each mixture was homogenized by using a Teflon glass homogenizer and centrifuged as 1,000× g for 10 min. The supernatant thus obtained was further centrifuged at 20,000× g for 20 min. The obtained precipitate was re-suspended in 50 times (based on the initial wet weight; in the case of the hippocampus) or 10 times (in the case of the cortex) as much a 50 Tris hydrochloride (pH 7.4) and incubated at room temperature for 30 min. After centrifuging at 20,000× g for 20 min, the obtained precipitate was further suspended and centrifuged twice each in the same manner. The precipitate thus obtained was suspended in 100 times (based on the initial wet weight; in the case of the hippocampus) or 20 times (in the case of the cortex) as much a 50 mM Tris hydrochloride solution (pH 7.4) to thereby give a receptor fraction. This receptor fraction was stored at −80° C. until using.
To the receptor fraction of the hippocampus were added a test compound and 0.5 nM of [^3H] 8-hydroxy-dipropylaminotetralin and the resultant mixture was incubated at room temperature for 30 min. Next, it was filtered through a glass filter with the use of a cell harvester. After washing the glass filter with 50 mM Tris hydrochloride (pH 7.4), the radioactivity of the receptor was measured with a liquid scintillation counter. The binding detected in the presence of 10 μM of serotonin binoxalate was referred to as the nonspecific binding.
(§5) IC50 was calculated by the probit method, while Ki was determined in accordance with the following formula: Ki=IC50(1+c/Kd) wherein c represents the concentration of the radioisotope-labeled compound, and Kd represents the dissociation constant of the radioisotope-labeled compound with respect to the receptor determined by Scatchard's analysis.

serotonin 2 receptor = biological target: T2, serotonin 2 receptor (Rattus norvegicus, UniProt P14842); assay: Binding test on [3H] ketanserin, cerebral cortex receptor fraction; design: species or system SD rats; details: 0.3 nM [3H] ketanserin, 37° C. 15 min, read-out: 5HT2
T2 construct: To the receptor fraction of the cerebral cortex were added a test compound and 0.3 nM of [^3H] ketanserin; from tissue; host or cells: rat cerebral cortex membrane fraction
T2 sequence (P14842 whole entry): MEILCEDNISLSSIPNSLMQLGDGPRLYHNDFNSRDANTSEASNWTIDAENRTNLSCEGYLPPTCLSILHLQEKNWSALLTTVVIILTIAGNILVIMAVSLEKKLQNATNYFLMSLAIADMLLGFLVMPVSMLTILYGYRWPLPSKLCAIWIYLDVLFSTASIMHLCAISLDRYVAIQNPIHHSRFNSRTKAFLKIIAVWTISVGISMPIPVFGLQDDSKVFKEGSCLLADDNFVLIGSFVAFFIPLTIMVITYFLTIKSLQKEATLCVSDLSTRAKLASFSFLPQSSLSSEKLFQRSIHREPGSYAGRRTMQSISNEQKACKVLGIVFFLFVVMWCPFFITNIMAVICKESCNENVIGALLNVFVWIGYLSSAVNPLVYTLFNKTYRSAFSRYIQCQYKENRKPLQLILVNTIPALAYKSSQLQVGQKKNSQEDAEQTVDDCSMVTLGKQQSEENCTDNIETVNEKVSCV
Method: as §4, §1, §2, §3
To the receptor fraction of the cerebral cortex were added a test compound and 0.3 nM of [^3H] ketanserin and the resultant mixture was incubated at 37° C. for 15 min. Next, it was filtered through a glass filter with the use of a cell harvester. After washing the glass filter with 50 mM Tris hydrochloride (pH 7.4), the radioactivity of the receptor was measured with a liquid scintillation counter. The binding detected in the presence of 1 μM of methysergide was referred to as the nonspecific binding.
as §5

Row | Structure (SMILES) | melting point | Ki (α1 adrenalin receptor) | Ki (serotonin 1A receptor) | Ki (serotonin 2 receptor)
1 | CCN1CCN(c2nc(-c3ccc4c(c3)CCC4O)cc3ccccc23)CC1 (stereo not shown) (as salt: oxalate) [Example 415, 1-(4-ethylpiperazin-1-yl)-3-(1-hydroxyindan-5-yl)isoquinoline] | 193 to 195 °C |  |  | 
2 | CCN1CCN(c2nc(-c3ccc(C#CC(C)(C)O)cc3)cc3sccc23)CC1 (as salt: oxalate) [Example 466, 4-(4-ethylpiperazin-1-yl)-6-[4-(3-hydroxy-3-methyl-1-butynyl)phenyl]thieno[3,2-c]pyridine oxalate] | 124.5 to 125.5 °C |  |  | 
3 | CCN1CCN(c2nc(-c3ccc([C@@H]4C[C@H](O)CCO4)cc3)cc3ccccc23)CC1 (relative stereo) (as salt: hydrochloride) [Example 401, 1-(4-Ethylpiperazin-1-yl)-3-[4-(cis-4-Hydroxytetrahydropyran-2-yl)Phenyl]Isoquinoline Dihydrochloride] | 148 to 149.5 °C |  |  | 
4 | CCN1CCN(c2nc(-c3ccc([C@@H]4C[C@@H](O)CCO4)cc3)cc3ccccc23)CC1 (relative stereo) (as salt: hydrochloride) [Example 402, 1-(4-Ethylpiperazin-1-yl)-3-[4-(trans-4-Hydroxytetrahydropyran-2-yl)Phenyl]Isoquinoline Dihydrochloride] | 151 to 152.5 °C (dec.) |  |  | 
5 | CCN1CCN(c2nc(-c3ccc([C@@H]4C[C@H](O)CCO4)cc3)cc3ccsc23)CC1 (relative stereo) (as salt: hydrochloride) [Example 454, 7-(4-Ethylpiperazin-1-yl)-5-[4-(cis-4-hydroxytetrahydropyran-2-yl)phenyl]thieno[2,3-c]pyridine dihydrochloride] | 157 to 159 °C |  |  | 
6 | CCN1CCN(c2nc(-c3ccc([C@@H]4C[C@@H](O)CCO4)cc3)cc3ccsc23)CC1 (relative stereo) (as salt: hydrochloride) [Example 455, 7-(4-ethylpiperazin-1-yl)-5-[4-(trans-4-hydroxytetrahydropyran-2-yl)phenyl]thieno[2,3-c]pyridine dihydrochloride] | 146 to 148 °C |  |  | 
7 | CCN1CCN(c2nc(-c3ccc(OCC(C)O)cc3)cc3cccnc23)CC1 (stereo in doubt) (as salt: hydrochloride) [Example 246, 8-(1-ethylpiperazin-4-yl)-6-{4-[(S)-2-hydroxypropoxy}phenyl]-1,7-naphthyridine Dihydrochloride] | 136 to 140 °C |  |  | 
8 | CCN1CCN(c2nc(-c3ccc(O[C@H](C)CO)cc3)cc3sccc23)CC1 (stereo in doubt) (as salt: hydrochloride) [Example 463, 4-(4-ethylpiperazin-1-yl)-6-[4-(2-hydroxy-1-methylethoxy)phenyl]thieno[3,2-c]pyridine dihydrochloride] | 124 to 125 °C |  |  | 
9 | CCN1CCN(c2nc(C=C(COC)c3ccccc3)cc3ccccc23)CC1 (stereo in doubt) (as salt: oxalate) [Example 208, 3-[(E)-2-Methoxymethyl-2-Phenylethenyl]-1-(4-Ethylpiperazin-1-Yl)Isoquinoline Oxalate] | 180 to 182 °C |  |  | 
10 | CCN1CCN(c2nc(CCCCOCc3ccccc3)cc3ccccc23)CC1 [Example 1, 3-(4-benzyloxybutyl)-1-(4-ethylpiperazin-1-yl)isoquinoline Dihydrochloride] |  | > 2000 nM | 21.2 nM | 36.4 nM
11 | CCN1CCN(c2nc(-c3ccc(OC)cc3OC)cc3ccccc23)CC1 [Example 12, 3-(2,4-dimethoxyphenyl)-1-(4-ethylpiperazin-1-yl)isoquinolin Dihydrochloride] |  | 4110 nM | 140 nM | 5.32 nM
12 | CCN1CCN(c2nc(-c3cc(OC)c(OC)cc3OC)cc3ccccc23)CC1.Cl [Example 16, 1-(4-ethylpiperazin-1-yl)-3-(2,4,5-trimethoxyphenyl)isoquinoline dihydrochloride] | 158 to 160 °C |  | 30 nM | 44 nM
13 | CCC(O)c1ccc(-c2cc3ccccc3c(N3CCN(CC)CC3)n2)cc1 (stereo not shown) [Example 19, 1-(4-ethylpiperazin-1-yl)-3-[4-(1-hydroxypropyl)phenyl]isoquinoline hydrochloride] |  | 373 nM | 6.9 nM | 1.6 nM
14 | CCN1CCN(c2nc(-c3ccc(CCCO)cc3)cc3ccccc23)CC1 [Example 20, 1-(4-ethylpiperazin-1-yl)-3-[4-(3-hydroxypropyl)phenyl]isoquinoline hydrochloride] |  | 868 nM | 14.5 nM | 2.6 nM
15 | CCCC(O)c1ccc(-c2cc3ccccc3c(N3CCN(CC)CC3)n2)cc1 (stereo not shown) [Example 21, 1-(4-ethylpiperazin-1-yl)-3-[4-(1-hydroxybutyl)phenyl]isoquinoline oxalate] |  | 636 nM | 17.2 nM | 4.3 nM
16 | CCN1CCN(c2nc(-c3ccc(CCC(C)O)cc3)cc3ccccc23)CC1 (stereo not shown) [Example 22, 1-(4-ethylpiperazin-1-yl)-3-[4-(3-hydroxybutyl)phenyl]isoquinoline oxalate] |  | 3100 nM | 9.4 nM | 1.5 nM
17 | CCN1CCN(c2nc(-c3ccc(CCCCO)cc3)cc3ccccc23)CC1 [Example 23, 3-[4-(4-hydroxybutyl)phenyl]-1-(4-ethylpiperazin-1-yl)isoquinoline hydrochloride] |  | 1250 nM | 16.8 nM | 6.4 nM
18 | CCN1CCN(c2nc(-c3ccc(CCCO)c(F)c3)cc3ccccc23)CC1 [Example 29, hydrochloride] |  | 668 nM | 9.6 nM | 3.5 nM
19 | CCN1CCN(c2nc(-c3ccc(CCCO)c(C(N)=O)c3)cc3ccccc23)CC1 [Example 31, 3-[3-carboxamide-4-(3-hydroxypropyl)phenyl]-1-(4-ethylpiperazin-1-yl)isoquinoline] | 213 to 218 °C (dec.) |  | 10.7 nM | 30.3 nM
20 | CCN1CCN(c2nc(-c3ccc(CCCO)c(C#N)c3)cc3ccccc23)CC1 [Example 32, 3-[3-cyano-4-(3-hydroxypropyl)phenyl]-1-(4-ethylpiperazin-1-yl)isoquinoline hydrochloride] |  | 500 nM | 10.1 nM | 7.8 nM
21 | CCN1CCN(c2nc(-c3ccc(CCCO)c(OC)c3)cc3ccccc23)CC1 [Example 33, 1-(4-ethylpiperazin-1-yl)-3-[4-(3-hydroxypropyl)-3-methoxyphenyl]isoquinoline hydrochloride] |  | 758 nM | 7.9 nM | 10.9 nM
22 | CCN1CCN(c2nc(-c3ccc(OCCO)cc3)cc3ccccc23)CC1 [Example 36, 1-(4-ethylpiperazin-1-yl)-3-[4-(2-hydroxyethoxy)phenyl]isoquinoline dihydrochloride] |  | 1220 nM | 18.8 nM | 3.9 nM
23 | CCN1CCN(c2nc(-c3ccc(OCCOC)cc3)cc3ccccc23)CC1 [Example 42, 1-(4-ethylpiperazin-1-yl)-3-[4-(2-methoxyethoxy)phenyl]isoquinoline dihydrochloride] |  | 2450 nM | 33.1 nM | 4.4 nM
24 | CCN1CCN(c2nc(-c3ccc(/C=N\O)cc3)cc3ccccc23)CC1.Cl [Example 60, (Z)-1-(4-Ethylpiperazin-1-Yl)-3-(4-Hydroxyiminomethylphenyl)Isoquinoline Hydrochloride] | 239 °C (dec.) |  | 21.3 nM | 9.1 nM
25 | CCN1CCN(c2nc(-c3ccc(/C=N/O)cc3)cc3ccccc23)CC1.Cl [Example 61, (E)-1-(4-Ethylpiperazin-1-Yl)-3-(4-Hydroxyiminomethylphenyl)Isoquinoline Hydrochloride] | 243 °C (dec.) |  | 11.7 nM | 8.2 nM
26 | CCN1CCN(c2nc(CCc3ccc(OCCO)cc3)cc3ccccc23)CC1 [Example 109, 1-(1-Ethylpiperazin-4-yl)-3-[4-(2-hydroxyethoxy)phenethyl]isoquinoline] |  | > 2000 nM |  | 
27 | CCN1CCN(c2nc(-c3ccc(C4CCOCC4)s3)cc3ccccc23)CC1.Cl [Example 166, 3-[2-(tetrahydropyran-4-yl]thiophen-5-yl]-1-(4-ethylpiperazin-1-yl)isoquinoline hydrochloride] | 251 to 253 °C |  | 81.9 nM | 11.5 nM
28 | COc1ccc(-c2cc3ccccc3c(N3CCN(CCO)CC3)n2)cc1 [Example 242, 1-[4-(2-hydroxyethyl)piperazin-1-yl]-3-(4-methoxyphenyl)isoquinoline Dihydrochloride] |  | 1790 nM |  | 
29 | CCN1CCN(c2nc(-c3ccc(OCCO)cc3)cc3sccc23)CC1 [Example 286, dihydrochloride] |  | 305 nM |  | 
30 | CCCN1CCN(c2nc(-c3ccc(OCC(C)(C)O)cc3)cc3sccc23)CC1 [Example 289, 6-[4-(2-methyl-2-hydroxypropoxy)phenyl]-4-(4-propylpiperazin-1-yl)thieno[3,2-c]pyridine hydrochloride] |  | 1310 nM |  | 
